Test [1] deals with Fusarium graminearum. Format: in vivo. To be noted: spray on flowering Triticum aestivum cv. Samson, inoculated 24 hours after treatment, evaluated 14 days later.
The test system of test [2] is Collectotrichum graminicola (Cg). Kind of test: In vitro pathogen growth inhibition assay, Cg. Format: cell-based. To be noted: 48 h. A digest of the protocol:
(§1)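 Spores in 17% V8 liquid medium, or 1.5 mm Rs mycelial plugs in ¼ PDB, incubated with compound; final concentration checked by OD600 for precipitation. OD readings at 24 and 48 h, blank-subtracted, plus visual ratings; value is concentration giving ≥90% growth inhibition.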

Another test has as its system Puccinia triticina. Kind of test: Foliar protection test for wheat leaf rust control. Format: in vivo. The conditions noted are these: foliar application to wheat (Triticum aestivum cv. Winterhawk), evaluated 10 days later.
The test system of test [3] is Phytophthora capsici (Pc). Kind of test: In vitro pathogen growth inhibition assay, Pc. The conditions noted are these: 48 h. Format: cell-based. A digest of the protocol:
(§2)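 Value reported is the compound concentration reaching ≥90% growth inhibition, from OD readings at 24 and 48 h after blank subtraction, confirmed visually. Inoculum was spores diluted in 17% V8 medium, except Rs, using 1.5 mm mycelial plugs in ¼ PDB; actual compound concentration corrected via OD600.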

The subject of a further test is Phakopsora pachyrhizi. Kind of test: Foliar protection test for Asian soybean rust control. Format: in vivo. The conditions noted are these: foliar application to soybean (Glycine max AG4832), percent disease area evaluated 14 days later.
Test [4] concerns Fusarium moniliforme (Fm). Kind of test: In vitro pathogen growth inhibition assay, Fm. The conditions noted are these: Fusarium verticillioides. The class given is cell-based. A digest of the protocol: as §1
The subject of another test is Pythium ultimum. Kind of test: Seed protectant for soybean seedling disease, P. ultimum. Format: in vivo. The conditions noted are these: soybean from treated seeds, 0.025 mg/seed, P. ultimum inoculated; for Plant Weight: fresh weight at 14 days; for Improvement in plant weight: percentage of non-inoculated non-treated controls. On the procedure: (§3) The pathogen of Rhizoctonia solani inoculum was grown on sterile sorghum; and the pathogen of Pythium ultimum inoculum was grown on white millet.
(§4) Soybean seeds (Glycine max cv. AG4832) were planted in 2.5-inch square pots containing Berger BM2 germination mix amended with fertilizer (e.g., 14-14-14). Pots with soil were inoculated with the pathogen of R. solani or P. ultimum at time of planting. A hole was pressed into the soil to a depth of about 2 to 3 cm; the inoculum was added to the hole, followed by the seed which was then covered with soil. Two seeds per pot were planted. Plants were grown in a growth chamber at conditions of 20 to 24° C., 14 hour light cycle, 500 uM of light, and 65% humidity. The pots inoculated with P. ultimum were sub-irrigated every day; and the pots inoculated with R. solani were sub-irrigated every other day.
(§5) Seedling emergence was captured at 7 and 14 days after seeding. At 14 days, the top of the plant was removed and fresh weight was recorded. The plant weights from the seeds treated with test compounds (e.g., in formulations) were compared to the ones either from the inoculated non-treated seeds or non-inoculated non-treated seeds. Table 10 lists the results of the R. solani control in soybean upon seed treatment with test compounds, and Table 11 lists the results of the P. ultimum control in soybean upon seed treatment with test compounds, respectively.

Another test deals with Rhizoctonia solani. Kind of test: Seed protectant for soybean seedling disease, R. solani. Format: in vivo. The conditions noted are these: soybean from treated seeds, 0.025 mg/seed, R. solani inoculated; for Plant Weight: fresh weight at 14 days; for Improvement in plant weight: percentage of non-inoculated non-treated controls. As for the experimental part: as §3, §4, §5

Test [5] deals with Fusarium virguliforme (Fv). Kind of test: In vitro pathogen growth inhibition assay, Fv. The class given is cell-based. A digest of the protocol:
as §2

The next test has as its system Botrtyis cinerea (Bc). Kind of test: In vitro pathogen growth inhibition assay, Bc. The conditions noted are these: 48 h. The class given is cell-based. A digest of the protocol: as §1
Test [6] has as its system Blumeria graminis f. sp. hordei. Kind of test: Foliar protection test for barley powdery mildew control. Format: in vivo. The conditions noted are these: foliar spray on Hordeum vulgare cv. Perry, inoculated 24 hours after treatment, evaluated 7 days later. A digest of the protocol:
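Six-day-old barley (cv. Perry) sprayed to wetness on both leaf sides; 24 h later inoculated by shaking spores from infected stock plants. Kept at 20 to 22° C, 70% relative humidity; mildew colonization assessed 7 days later.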

Test [7] relates to Fusarium graminearum. Format: in vivo. The conditions noted are these: corn from treated seeds, 0.025 mg/seed, F. graminearum inoculated.
The test system of the next test is Septoria tritici (St). Kind of test: In vitro pathogen growth inhibition assay, St. Format: cell-based. The conditions noted are these: Zymoseptoria tritici, 48 h. In outline: as §1
Another test has as its system Rhizoctonia solani (Rs). Kind of test: In vitro pathogen growth inhibition assay, Rs (mycelial plugs). Format: cell-based. The conditions noted are these: Rhizoctonia solani, 48 h, mycelial plugs. In outline: as §2
[8] abbreviates: ≥90% growth inhibition, 48 hours, vs 2% DMSO control, read-out: Compound Concentration (ppm) sufficient for ≥90% inhibition of Cg.
[9] abbreviates: ≥90% growth inhibition, 48 hours, vs 2% DMSO control, read-out: Compound Concentration (ppm) sufficient for ≥90% inhibition of Pc.
Setting [10] is: ≥90% growth inhibition, 48 hours, vs 2% DMSO control, read-out: Compound Concentration (ppm) sufficient for ≥90% inhibition of Fm.
The mark [11] stands for this setting: ≥90% growth inhibition, 48 hours, vs 2% DMSO control, read-out: Compound Concentration (ppm) sufficient for ≥90% inhibition of Fv.
The mark [12] stands for this setting: ≥90% growth inhibition, 48 hours, vs 2% DMSO control, read-out: Compound Concentration (ppm) sufficient for ≥90% inhibition of Bc.
The mark [13] stands for this setting: ≥90% growth inhibition, 48 hours, vs 2% DMSO control, read-out: Compound Concentration (ppm) sufficient for ≥90% inhibition of St.
The mark [14] stands for this setting: ≥90% growth inhibition, 48 hours, vs 2% DMSO control, read-out: Compound Concentration (ppm) sufficient for ≥90% inhibition of Rs.

≈ marks a conversion by molar mass, not a printed value. Like-named read-outs stand apart in the source and are kept apart here.

For the compound `COc1ccc(F)cc1[C@H](Cn1c(=O)n(C(C)(C)C(=O)NC(C)C)c(=O)c2c(C)c(-n3nccn3)sc21)OCCC#N` [Compound I-095, (R)-2-(1-(2-(2-cyanoethoxy)-2-(5-fluoro-2-methoxyphenyl)ethyl)-5-methyl-2,4-dioxo-6-(2H-1,2,3-triazol-2-yl)-1,4-dihydrothieno[2,3-d]pyrimidin-3 (2H)-yl)-N-isopropyl-2-methylpropanamide], the “Wheat Fusarium Head Blight Control at a compound concentration of 25 ppm or lower” value with Fusarium graminearum [1] is on record as “B (from 50 to 69% control of wheat fusarium head blight)”. The IC90 in test [2] (≥90% inhibition, 48 hours vs 2% DMSO control, read-out: Compound Concentration (ppm) sufficient for ≥90% inhibition of growth, Cg) is 0.08 µg/mL (≈ 0.134 µM); in test [3] (≥90% inhibition, 48 hours vs 2% DMSO control, read-out: Compound Concentration (ppm) sufficient for ≥90% inhibition of growth, Pc) it was not below 2 µg/mL; in test [4] (≥90% inhibition, 48 hours vs 2% DMSO control, read-out: Compound Concentration (ppm) sufficient for ≥90% inhibition of growth, Fm), 0.08 µg/mL (≈ 0.134 µM); in test [5] (≥90% inhibition, 48 hours vs 2% DMSO control, read-out: Compound Concentration (ppm) sufficient for ≥90% inhibition of growth, Fv), 0.08 µg/mL (≈ 0.134 µM); with Botrtyis cinerea (Bc) (≥90% inhibition, 48 hours vs 2% DMSO control, read-out: Compound Concentration (ppm) sufficient for ≥90% inhibition of growth, Bc), 0.4 µg/mL (≈ 0.669 µM); in the test with Septoria tritici (St) (≥90% inhibition, 48 hours vs 2% DMSO control, read-out: Compound Concentration (ppm) sufficient for ≥90% inhibition of growth, St), more than 50 µg/mL. Also, the IC90 in the test with Rhizoctonia solani (Rs) (≥90% inhibition, 48 hours vs 2% DMSO control, read-out: Compound Concentration (ppm) sufficient for ≥90% inhibition of growth, Rs) is 0.08 µg/mL (≈ 0.134 µM). Further, in the test with Puccinia triticina, the “Wheat Leaf Rust Control at a compound concentration of 10 ppm or lower” value (“Wheat Leaf Rust Control … of 10 ppm or lower” for short) is “AA (≥85% control of wheat leaf rust)”. Moreover, the “Asian Soybean Rust Control at a compound concentration of 25 ppm or lower” value (“Asian Soybean Rust Control … of 25 ppm or lower” for short) in the test on Phakopsora pachyrhizi is “AA (≥85% control of Asian soybean rust)”. Besides, the entries for the “Plant Weight” value in the test with Pythium ultimum and in the test on Rhizoctonia solani were 4.65 g and 7.54 g, respectively. In addition, the “Improvement in plant weight” value with Pythium ultimum was determined as 74%; in the test with Rhizoctonia solani, 93.9%. For the same compound, in test [6], the “Barley Powdery Mildew Control at a compound concentration of 10 ppm or lower” value was “AA (≥85% control of barley powdery mildew)”. For the same compound, the “Plant Height” value with Fusarium graminearum [7] (Table 12) is listed as 39.41 cm; in the test with Fusarium graminearum [7] (Table 13), 43.97 cm.

In the case of `COc1ccc(F)cc1[C@H](Cn1c(=O)n(C(C)(C)C(=O)NC(C)C)c(=O)c2c(C)c(-n3cccn3)sc21)OCCC#N` [Compound I-191, (R)-2-(1-(2-(2-cyanoethoxy)-2-(5-fluoro-2-methoxyphenyl)ethyl)-5-methyl-2,4-dioxo-6-(1H-pyrazol-1-yl)-1,4-dihydrothieno[2,3-d]pyrimidin-3 (2H)-yl)-N-isopropyl-2-methylpropanamide], the “Wheat Fusarium Head Blight Control at a compound concentration of 25 ppm or lower” value in the test with Fusarium graminearum [1] is on record as “C (from 25 to 49% control of wheat fusarium head blight)”. Besides, the IC90 in test [2] (setting [8]) was not below 0.4 µg/mL; in [3] (setting [9]) it was 50 µg/mL (≈ 83.8 µM); in [4] (setting [10]) it was 0.08 µg/mL (≈ 0.134 µM); in [5] (setting [11]), 0.4 µg/mL (≈ 0.67 µM); in the test on Botrtyis cinerea (Bc) (setting [12]), 0.4 µg/mL (≈ 0.67 µM); in the test with Septoria tritici (St) (setting [13]) it was not below 10 µg/mL. For the same compound, the IC90 in the test with Rhizoctonia solani (Rs) (setting [14]) was found to be 0.08 µg/mL (≈ 0.134 µM). Further, in the test on Puccinia triticina, the “Wheat Leaf Rust Control … of 10 ppm or lower” value is “AA (≥85% control of wheat leaf rust)”. For the same compound, the “Asian Soybean Rust Control … of 25 ppm or lower” value in the test on Phakopsora pachyrhizi was “A (from 70% to 84% control of Asian soybean rust)”. Moreover, the “Plant Weight” value in the test on Pythium ultimum worked out at 5.00 g; in the test with Rhizoctonia solani, 6.39 g. The “Improvement in plant weight” value in the test with Pythium ultimum is listed as 80%; with Rhizoctonia solani, 79.6%. Further, the “Barley Powdery Mildew Control at a compound concentration of 10 ppm or lower” value in test [6] was “AA (≥85% control of barley powdery mildew)”. In addition, the “Plant Height” value in the test with Fusarium graminearum [7] (Table 12) is 35.50 cm.

On to `COc1ccccc1[C@H](Cn1c(=O)n(C(C)(C)C(=O)NC(C)C)c(=O)c2c(C)c(-n3nccn3)sc21)OCCC#N` [Compound I-193, (R)-2-(1-(2-(2-cyanoethoxy)-2-(2-methoxyphenyl)ethyl)-5-methyl-2,4-dioxo-6-(2H-1,2,3-triazol-2-yl)-1,4-dihydrothieno[2,3-d]pyrimidin-3 (2H)-yl)-N-isopropyl-2-methylpropanamide], for which the “Wheat Fusarium Head Blight Control at a compound concentration of 25 ppm or lower” value in the test on Fusarium graminearum [1] is reported as “B (from 50 to 69% control of wheat fusarium head blight)”. The IC90 is not below 0.08 µg/mL in [2] (setting [8]); 2 µg/mL (≈ 3.45 µM) in [3] (setting [9]); 0.08 µg/mL (≈ 0.138 µM) in [4] (setting [10]); 0.4 µg/mL (≈ 0.69 µM) in [5] (setting [11]); not below 0.08 µg/mL in the test with Botrtyis cinerea (Bc) (setting [12]); not below 2 µg/mL with Septoria tritici (St) (setting [13]). In addition, the IC90 with Rhizoctonia solani (Rs) (setting [14]) came out at 0.08 µg/mL (≈ 0.138 µM). The “Wheat Leaf Rust Control … of 10 ppm or lower” value in the test with Puccinia triticina is “AA (≥85% control of wheat leaf rust)”. Further, in the test on Phakopsora pachyrhizi, the “Asian Soybean Rust Control … of 25 ppm or lower” value is “AA (≥85% control of Asian soybean rust)”. In addition, the “Plant Weight” value in the test with Pythium ultimum came to 5.36 g; with Rhizoctonia solani, 6.83 g. Also, the “Improvement in plant weight” value is listed as 86% in the test on Pythium ultimum and 85.0% in the test on Rhizoctonia solani. In addition, in test [6], the “Barley Powdery Mildew Control at a compound concentration of 10 ppm or lower” value is reported as “AA (≥85% control of barley powdery mildew)”. The “Plant Height” value in the test on Fusarium graminearum [7] (Table 13) was 40.66 cm.

These data come from US10941157B2, “Pesticidal compositions and uses thereof” (Gilead Apollo, LLC, priority 2015, dated 2021).
